As usually defined, the IC50 is the concentration that gives 50% inhibition.

Sequence of full-length human recombinant BTK (Q06187 whole entry): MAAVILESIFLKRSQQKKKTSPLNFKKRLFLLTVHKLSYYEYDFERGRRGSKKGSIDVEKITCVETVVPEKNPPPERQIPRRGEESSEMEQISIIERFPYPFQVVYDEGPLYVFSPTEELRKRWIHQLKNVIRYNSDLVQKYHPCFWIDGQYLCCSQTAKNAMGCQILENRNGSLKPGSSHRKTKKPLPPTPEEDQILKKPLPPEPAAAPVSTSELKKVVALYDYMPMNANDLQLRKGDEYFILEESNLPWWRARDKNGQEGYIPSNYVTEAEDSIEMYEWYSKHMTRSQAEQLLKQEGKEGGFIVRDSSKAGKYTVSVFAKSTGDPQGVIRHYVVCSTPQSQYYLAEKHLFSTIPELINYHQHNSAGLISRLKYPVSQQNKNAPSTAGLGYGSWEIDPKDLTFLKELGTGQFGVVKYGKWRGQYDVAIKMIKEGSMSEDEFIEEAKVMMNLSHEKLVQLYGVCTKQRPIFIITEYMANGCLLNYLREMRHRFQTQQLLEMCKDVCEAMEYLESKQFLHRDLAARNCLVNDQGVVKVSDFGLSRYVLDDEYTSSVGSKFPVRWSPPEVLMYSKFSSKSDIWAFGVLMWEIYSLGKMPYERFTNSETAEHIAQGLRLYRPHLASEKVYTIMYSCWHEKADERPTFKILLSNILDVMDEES

In the assay the target is full-length human recombinant BTK (Homo sapiens (Human), UniProt Q06187). The experiment in a line: Inhibition of Btk enzymatic activity (biochemical enzyme assay, Caliper). Particulars: 30° C., 60 minutes. The method, then:
The inhibitory activity of the present compounds against Btk was assessed in a biochemical enzyme assay. Assay plates in 384 well format were prepared with 8-point serial dilutions for the test compounds on a Thermo CatX workstation equipped with a Innovadyne Nanodrop Express. The assay plates were prepared by addition of 50 nl per well of compound solution in 90% DMSO. The kinase reactions were started by stepwise addition of 4.5 μl per well of peptide/ATP-solution (4 μM FITC-Ahx-[…]-NH2, 164 μM ATP) in kinase buffer (50 mM HEPES, pH 7.5, 1 mM DTT, 0.02% Tween20, 0.02% BSA, 0.6% DMSO, 10 mM beta-glycerophosphate, and 10 μM sodium orthovanadate, 18 mM MgCl2, 1 mM MnCl2) and 4.5 μl per well of enzyme solution (6.4 nM full-length human recombinant BTK) in kinase buffer. Kinase reactions were incubated at 30° C. for 60 minutes and subsequently terminated by addition of 16 μl per well of stop solution (100 mM HEPES pH 7.5, 5% DMSO, 0.1% Caliper coating reagent, 10 mM EDTA, and 0.015% Brij35). Kinase reactions were analyzed on a Caliper LC3000 workstation by separating phosphorylated and unphosphorylated peptides and kinase activities were calculated from the amounts of newly formed phospho-peptide. Inhibition data were calculated by comparison to control reactions without enzyme (100% inhibition) and without inhibitors (0% inhibition). The concentration of inhibitor required for 50% inhibition (IC50) was calculated from the inhibition in response to inhibitor concentrations.
On to `Cc1c(NC(=O)c2ccc(C3(F)CC3)cc2)cc(F)cc1-c1ncnc2[nH]c(C3=CCN(C(=O)N(C)C)CC3)cc12` [Example 1, 4-(4-{5-Fluoro-3-[4-(1-fluoro-cyclopropyl)-benzoylamino]-2-methyl-phenyl}-7H-pyrrolo[2′3-d]pyrimidin-6-yl)-3,6-dihydro-2H-pyridine-1-carboxylic acid dimethylamide], for which the IC50 was determined as 1 nM. With `Cc1c(NC(=O)c2ccc(N(C)C(C)C)cc2)cc(F)cc1-c1ncnc2[nH]c(C3=CCN(C(=O)N(C)C)CC3)cc12` [Example 4], the IC50 worked out at 2 nM.

For `Cc1c(NC(=O)c2ccc3c(C)c[nH]c3c2)cc(F)cc1-c1ncnc2[nH]c(C3=CCN(C(=O)N(C)C)CC3)cc12` [Example 5, 3-Methyl-1H-indole-6-carboxylic acid {3-[6-(1-dimethylcarbamoyl-1,2,3,6-tetrahydro-pyridin-4-yl)-7H-pyrrolo[2,3-d]pyrimidin-4-yl]-5-fluoro-2-methyl-phenyl}-amide], the IC50 is 3 nM.

`Cc1c(NC(=O)c2ccc(N3CCCCC3)cc2)cc(F)cc1-c1ncnc2[nH]c(C3=CCN(C(=O)N(C)C)CC3)cc12` [Example 7, 4-{4-[5-Fluoro-2-methyl-3-(4-piperidin-1-yl-benzoylamino)-phenyl]-7H-pyrrolo[2,3-d]pyrimidin-6-yl}-3,6-dihydro-2H-pyridine-1-carboxylic acid dimethylamide]: the IC50 was determined as 3 nM. The result for `Cc1c(NC(=O)c2ccc(C3(C(F)(F)F)CC3)cc2)cc(F)cc1-c1ncnc2[nH]c(C3=CCN(C(=O)N(C)C)CC3)cc12` [Example 9, 4-(4-{5-Fluoro-2-methyl-3-[4-(1-trifluoromethyl-cyclopropyl)-benzoylamino]-phenyl}-7H-pyrrolo[2,3-d]pyrimidin-6-yl)-3,6-dihydro-2H-pyridine-1-carboxylic acid dimethylamide] reads 5 nM. With `Cc1c(NC(=O)c2ccc(OC(C)C)cc2)cc(F)cc1-c1ncnc2[nH]c(C3=CCN(C(=O)N(C)C)CC3)cc12` [Example 10, 4-{4-[5-Fluoro-3-(4-isopropoxy-benzoylamino)-2-methyl-phenyl]-7H-pyrrolo[2,3-d]pyrimidin-6-yl}-3,6-dihydro-2H-pyridine-1-carboxylic acid dimethylamide], the IC50 was 15 nM. In the case of `Cc1c(NC(=O)c2ccc(S(F)(F)(F)(F)F)cc2)cc(F)cc1-c1ncnc2[nH]c(C3=CCN(C(=O)N(C)C)CC3)cc12` [Example 11, 4-(4-{5-Fluoro-3-[4-pentafluorothio-benzoylamino]-2-methyl-phenyl}-7H-pyrrolo[2,3-d]pyrimidin-6-yl)-3,6-dihydro-2H-pyridine-1-carboxylic acid dimethylamide], the IC50 was 5 nM. Under `COCC(C)(C)c1ccc(C(=O)Nc2cc(F)cc(-c3ncnc4[nH]c(C5=CCN(C(=O)N(C)C)CC5)cc34)c2C)cc1` [Example 12, 4-(4-{5-Fluoro-3-[4-(2-methoxy-1,1-dimethyl-ethyl)-benzoylamino]-2-methyl-phenyl}-7H-pyrrolo[2,3-d]pyrimidin-6-yl)-3,6-dihydro-2H-pyridine-1-carboxylic acid dimethylamide] stands 4 nM; under `COC(C)(C)c1ccc(C(=O)Nc2cc(F)cc(-c3ncnc4[nH]c(C5=CCN(C(=O)N(C)C)CC5)cc34)c2C)cc1` [Example 13, 4-(4-{5-Fluoro-3-[4-(1-methoxy-1-methyl-ethyl)-benzoylamino]-2-methyl-phenyl}-7H-pyrrolo[2,3-d]pyrimidin-6-yl)-3,6-dihydro-2H-pyridine-1-carboxylic acid dimethylamide], 4 nM; under `Cc1c(NC(=O)c2ccc3ccn(C)c3n2)cc(F)cc1-c1ncnc2[nH]c(C3=CCN(C(=O)N(C)C)CC3)cc12` [Example 14, 1-Methyl-1H-pyrrolo[2,3-b]pyridine-6-carboxylic acid {3-[6-(1-dimethyl-carbamoyl-1,2,3,6-tetrahydro-pyridin-4-yl)-7H-pyrrolo[2,3-d]pyrimidin-4-yl]-5-fluoro-2-methyl-phenyl}-amide], 16 nM.

Regarding `Cc1c(NC(=O)c2ccc(N(C)C)cc2)cc(F)cc1-c1ncnc2[nH]c(C3=CCN(C(=O)N(C)C)CC3)cc12` [Example 15, 4-{4-[3-(4-Dimethylamino-benzoylamino)-5-fluoro-2-methyl-phenyl]-7H-pyrrolo[2,3-d]pyrimidin-6-yl}-3,6-dihydro-2H-pyridine-1-carboxylic acid dimethylamide], the IC50 stood at 17 nM.

For `Cc1c(NC(=O)c2ccc(C(C)(O)C(F)(F)F)cc2)cc(F)cc1-c1ncnc2[nH]c(C3=CCN(C(=O)N(C)C)CC3)cc12` (stereo not drawn) [Example 18, 4-(4-{5-Fluoro-2-methyl-3-[4-(2,2,2-trifluoro-1-hydroxy-1-methyl-ethyl)-benzoylamino]-phenyl}-7H-pyrrolo[2,3-d]pyrimidin-6-yl)-3,6-dihydro-2H-pyridine-1-carboxylic acid dimethylamide], the IC50 is 6 nM. `CC(=O)c1ccc(C(=O)Nc2cc(F)cc(-c3ncnc4[nH]c(C5=CCN(C(=O)N(C)C)CC5)cc34)c2C)cc1` [Example 19, 4-{4-[3-(4-Acetyl-benzoylamino)-5-fluoro-2-methyl-phenyl]-7H-pyrrolo[2,3-d]pyrimidin-6-yl}-3,6-dihydro-2H-pyridine-1-carboxylic acid dimethylamide]: the IC50 turned out to be 23 nM. The result for `CN(C)C(=O)N1CC=C(c2cc3c(-c4ccc(F)c(NC(=O)c5ccc(C6CC6)cc5)c4)ncnc3[nH]2)CC1` [Example 20, 4-{4-[3-(4-Cyclopropyl-benzoylamino)-4-fluoro-phenyl]-7H-pyrrolo[2,3-d]pyrimidin-6-yl}-3,6-dihydro-2H-pyridine-1-carboxylic acid dimethylamide] reads 6 nM; that for `CN(C)C(=O)N1CC=C(c2cc3c(-c4ccc(F)c(NC(=O)c5ccc(C(C)(C)CO)cc5)c4)ncnc3[nH]2)CC1` [Example 21, 4-(4-{4-Fluoro-3-[4-(2-hydroxy-1,1-dimethyl-ethyl)-benzoylamino]-phenyl}-7H-pyrrolo[2,3-d]pyrimidin-6-yl)-3,6-dihydro-2H-pyridine-1-carboxylic acid dimethylamide], 6 nM; that for `Cc1c(NC(=O)c2ccc(C(C)(C)O)cc2F)cc(F)cc1-c1ncnc2[nH]c(C3=CCOCC3)cc12` [Example 22, N-{3-[6-(3,6-Dihydro-2H-pyran-4-yl)-7H-pyrrolo[2,3-d]pyrimidin-4-yl]-5-fluoro-2-methyl-phenyl}-2-fluoro-4-(1-hydroxy-1-methyl-ethyl)-benzamide], 8 nM. Under `CC(C)(O)c1ccc(C(=O)Nc2cccc(-c3ncnc4[nH]c(C5=CCOCC5)cc34)c2CO)c(F)c1` [Example 23, N-{3-[6-(3,6-Dihydro-2H-pyran-4-yl)-7H-pyrrolo[2,3-d]pyrimidin-4-yl]-2-hydroxymethyl-phenyl}-2-fluoro-4-(1-hydroxy-1-methyl-ethyl)-benzamide] stands 12 nM. With `Cc1c(NC(=O)c2ccc(C(C)(C)C)cc2)cc(F)cc1-c1ncnc2[nH]c(C3=CC[S+]([O-])CC3)cc12` (stereo not drawn) [Example 25, 4-tert-Butyl-N-{5-fluoro-2-methyl-3-[6-(3,6-dihydro-1-oxido-2H-thiopyran-4-yl)-7H-pyrrolo[2,3-d]pyrimidin-4-yl]-phenyl}-benzamide], the half-inhibitory concentration (IC50) turned out to be 2 nM.

For the origin of these results see patent publication US9233111B2, “Pyrrolo pyrimidine derivatives” (NOVARTIS AG, priority 2011, dated 2016).
